Data reported in the supplement of paper PMC10307832.

Legend:
Assay in all cases: relative viability (nuclei count vs DMSO), 5 days (fraction); higher = more cells survive
LCLC-103H = test system: LCLC-103H
Summary of the method: (§1)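 A single step with final 0.05% Triton X-100, 1% formaldehyde and 1 ug/ml Hoechst fixed the cells and stained nuclei 5 days after treatment. Lung cancer cell lines in 1536-well plates had been treated by pin tool the day after seeding with one drug alone or a fixed anchor-drug dose plus five library-drug doses (not always all listed) in √10 steps, and nuclei were counted on 4× images. Relative viability is the ratio of nuclei in treated wells to nuclei in vehicle wells, taken as the median of duplicate plates.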

EBC-1 = test system: EBC-1
Summary of the method: as §1

EKVX = test system: EKVX
Summary of the method: as §1

NCI-H1703 = test system: NCI-H1703
Summary of the method: as §1

A549 = test system: A549
Summary of the method: as §1

HCC-15 = test system: HCC-15
Summary of the method: as §1

NCI-H1299 = test system: NCI-H1299
Summary of the method: as §1

IA-LM = test system: IA-LM
Summary of the method: as §1

NCI-H1755 = test system: NCI-H1755
Summary of the method: as §1

NCI-H1395 = test system: NCI-H1395
Summary of the method: as §1

HCC-44 = test system: HCC-44
Summary of the method: as §1

UMC-11 = test system: UMC-11
Summary of the method: as §1

Calu-6 = test system: Calu-6
Summary of the method: as §1

**Q.** What does the source list for `CC(=O)O[C@@]12CO[C@@H]1C[C@H](O)[C@@]1(C)C(=O)[C@H](O)C3=C(C)[C@@H](OC(=O)[C@H](O)[C@@H](NC(=O)OC(C)(C)C)c4ccccc4)C[C@@](O)([C@@H](OC(=O)c4ccccc4)[C@H]21)C3(C)C` [Docetaxel] + Cc1nc(NC(=O)N2CCC[C@H]2C(N)=O)sc1-c1ccnc(C(C)(C)C(F)(F)F)c1 [Alpelisib] (partner 2 µM)?
**A.** relative viability (LCLC-103H; first compound 0.0002 µM): 0.966; relative viability (LCLC-103H; first compound 0.000632 µM): 0.984; relative viability (LCLC-103H; first compound 0.002 µM): 0.963; relative viability (LCLC-103H; first compound 0.006325 µM): 0.563; relative viability (LCLC-103H; first compound 0.02 µM): 0.452; relative viability (EBC-1; first compound 0.0002 µM): 0.797; relative viability (EBC-1; first compound 0.000632 µM): 0.576; relative viability (EBC-1; first compound 0.002 µM): 0.275; relative viability (EBC-1; first compound 0.006325 µM): 0.267; relative viability (EBC-1; first compound 0.02 µM): 0.174; relative viability (EKVX; first compound 0.0002 µM): 0.884; relative viability (EKVX; first compound 0.000632 µM): 0.853; relative viability (EKVX; first compound 0.002 µM): 0.435; relative viability (EKVX; first compound 0.006325 µM): 0.25; relative viability (EKVX; first compound 0.02 µM): 0.146; relative viability (NCI-H1703; first compound 0.0002 µM): 0.406; relative viability (NCI-H1703; first compound 0.000632 µM): 0.442; relative viability (NCI-H1703; first compound 0.006325 µM): 0.125; relative viability (NCI-H1703; first compound 0.02 µM): 0.109; relative viability (A549; first compound 0.0002 µM): 0.752; relative viability (A549; first compound 0.000632 µM): 0.668; relative viability (A549; first compound 0.002 µM): 0.0866; relative viability (A549; first compound 0.006325 µM): 0.0749; relative viability (A549; first compound 0.02 µM): 0.034; relative viability (HCC-15; first compound 0.0002 µM): 0.805; relative viability (HCC-15; first compound 0.000632 µM): 0.467; relative viability (HCC-15; first compound 0.002 µM): 0.196; relative viability (HCC-15; first compound 0.006325 µM): 0.208; relative viability (HCC-15; first compound 0.02 µM): 0.118; relative viability (NCI-H1299; first compound 0.0002 µM): 1.05; relative viability (NCI-H1299; first compound 0.000632 µM): 1.06; relative viability (NCI-H1299; first compound 0.002 µM): 1.01; relative viability (NCI-H1299; first compound 0.006325 µM): 0.605; relative viability (NCI-H1299; first compound 0.02 µM): 0.431; relative viability (IA-LM; first compound 0.0002 µM): 0.595; relative viability (IA-LM; first compound 0.000632 µM): 0.232; relative viability (IA-LM; first compound 0.002 µM): 0.116; relative viability (IA-LM; first compound 0.006325 µM): 0.0821; relative viability (IA-LM; first compound 0.02 µM): 0.0716; relative viability (NCI-H1755; first compound 0.0002 µM): 0.871; relative viability (NCI-H1755; first compound 0.000632 µM): 0.792; relative viability (NCI-H1755; first compound 0.002 µM): 0.434; relative viability (NCI-H1755; first compound 0.006325 µM): 0.326; relative viability (NCI-H1755; first compound 0.02 µM): 0.262; relative viability (NCI-H1395; first compound 0.0002 µM): 1; relative viability (NCI-H1395; first compound 0.000632 µM): 1.02; relative viability (NCI-H1395; first compound 0.002 µM): 1.35; relative viability (NCI-H1395; first compound 0.006325 µM): 0.638; relative viability (NCI-H1395; first compound 0.02 µM): 0.307; relative viability (HCC-44; first compound 0.0002 µM): 0.758; relative viability (HCC-44; first compound 0.000632 µM): 0.711; relative viability (HCC-44; first compound 0.002 µM): 0.609; relative viability (HCC-44; first compound 0.006325 µM): 0.149; relative viability (HCC-44; first compound 0.02 µM): 0.0751; relative viability (UMC-11; first compound 0.0002 µM): 0.963; relative viability (UMC-11; first compound 0.000632 µM): 0.841; relative viability (UMC-11; first compound 0.002 µM): 0.195; relative viability (UMC-11; first compound 0.006325 µM): 0.176; relative viability (UMC-11; first compound 0.02 µM): 0.153; relative viability (Calu-6; first compound 0.0002 µM): 1.03; relative viability (Calu-6; first compound 0.000632 µM): 0.99; relative viability (Calu-6; first compound 0.002 µM): 0.432; relative viability (Calu-6; first compound 0.006325 µM): 0.147; relative viability (Calu-6; first compound 0.02 µM): 0.115
